A value given as a limit tells only on which side of the number the result lay.

Assay [1] concerns the target T1, Epidermal growth factor receptor (Homo sapiens, UniProt P00533). Put plainly: Inhibition of EGFR measured as pGAT-biotin peptide phosphorylation in presence of 2.0 uM ATP by HTRF assay. The assay is classed as functional. (In general: TR-FRET usually uses a lanthanide donor and a delayed reading to cut background.)
In assay [2] the target is Vascular endothelial growth factor receptor 2 (Homo sapiens, UniProt P35968).
Description: Inhibition of KDR measured as pGAT-biotin peptide phosphorylation by HTRF assay
In assay [3] the target is T1, Epidermal growth factor receptor. The experiment in a line: Inhibition of EGFR autophosphorylation in DiFi cells by ELISA. The assay is classed as functional, cell-based. (In general: An ELISA detects its analyte on a solid surface through an enzyme-linked reagent.)

T1 sequence (P00533 whole entry): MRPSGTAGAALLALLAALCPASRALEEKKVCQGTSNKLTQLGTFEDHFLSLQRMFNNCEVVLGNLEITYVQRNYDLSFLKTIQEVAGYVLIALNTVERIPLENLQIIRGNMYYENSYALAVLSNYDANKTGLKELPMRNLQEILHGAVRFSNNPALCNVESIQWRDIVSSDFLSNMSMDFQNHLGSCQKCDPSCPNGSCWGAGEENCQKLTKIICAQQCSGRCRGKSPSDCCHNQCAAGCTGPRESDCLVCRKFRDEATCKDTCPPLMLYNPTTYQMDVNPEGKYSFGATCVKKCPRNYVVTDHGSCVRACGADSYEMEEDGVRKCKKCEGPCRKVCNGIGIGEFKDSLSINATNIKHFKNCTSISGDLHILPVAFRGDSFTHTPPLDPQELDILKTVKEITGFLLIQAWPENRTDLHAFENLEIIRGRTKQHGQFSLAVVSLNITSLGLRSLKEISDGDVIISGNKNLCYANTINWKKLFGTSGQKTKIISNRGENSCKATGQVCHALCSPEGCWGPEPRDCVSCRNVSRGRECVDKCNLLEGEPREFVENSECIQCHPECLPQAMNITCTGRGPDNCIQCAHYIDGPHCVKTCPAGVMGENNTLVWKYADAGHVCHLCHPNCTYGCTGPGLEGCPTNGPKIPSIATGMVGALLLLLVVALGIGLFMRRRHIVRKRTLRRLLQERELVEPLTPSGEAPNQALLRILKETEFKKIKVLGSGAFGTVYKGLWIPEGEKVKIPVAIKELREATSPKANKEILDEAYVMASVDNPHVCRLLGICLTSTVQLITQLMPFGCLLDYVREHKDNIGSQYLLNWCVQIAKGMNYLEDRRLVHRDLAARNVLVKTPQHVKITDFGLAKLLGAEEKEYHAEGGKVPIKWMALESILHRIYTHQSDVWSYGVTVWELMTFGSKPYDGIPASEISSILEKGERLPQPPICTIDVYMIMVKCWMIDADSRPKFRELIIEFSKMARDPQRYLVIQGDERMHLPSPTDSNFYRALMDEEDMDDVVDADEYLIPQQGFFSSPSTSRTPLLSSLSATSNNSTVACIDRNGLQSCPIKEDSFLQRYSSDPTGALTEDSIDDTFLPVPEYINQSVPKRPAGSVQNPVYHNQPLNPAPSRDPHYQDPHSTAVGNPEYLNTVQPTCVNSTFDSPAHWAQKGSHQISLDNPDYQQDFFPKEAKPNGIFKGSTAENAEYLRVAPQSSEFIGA
Vascular endothelial growth factor receptor 2, sequence (P35968 whole entry): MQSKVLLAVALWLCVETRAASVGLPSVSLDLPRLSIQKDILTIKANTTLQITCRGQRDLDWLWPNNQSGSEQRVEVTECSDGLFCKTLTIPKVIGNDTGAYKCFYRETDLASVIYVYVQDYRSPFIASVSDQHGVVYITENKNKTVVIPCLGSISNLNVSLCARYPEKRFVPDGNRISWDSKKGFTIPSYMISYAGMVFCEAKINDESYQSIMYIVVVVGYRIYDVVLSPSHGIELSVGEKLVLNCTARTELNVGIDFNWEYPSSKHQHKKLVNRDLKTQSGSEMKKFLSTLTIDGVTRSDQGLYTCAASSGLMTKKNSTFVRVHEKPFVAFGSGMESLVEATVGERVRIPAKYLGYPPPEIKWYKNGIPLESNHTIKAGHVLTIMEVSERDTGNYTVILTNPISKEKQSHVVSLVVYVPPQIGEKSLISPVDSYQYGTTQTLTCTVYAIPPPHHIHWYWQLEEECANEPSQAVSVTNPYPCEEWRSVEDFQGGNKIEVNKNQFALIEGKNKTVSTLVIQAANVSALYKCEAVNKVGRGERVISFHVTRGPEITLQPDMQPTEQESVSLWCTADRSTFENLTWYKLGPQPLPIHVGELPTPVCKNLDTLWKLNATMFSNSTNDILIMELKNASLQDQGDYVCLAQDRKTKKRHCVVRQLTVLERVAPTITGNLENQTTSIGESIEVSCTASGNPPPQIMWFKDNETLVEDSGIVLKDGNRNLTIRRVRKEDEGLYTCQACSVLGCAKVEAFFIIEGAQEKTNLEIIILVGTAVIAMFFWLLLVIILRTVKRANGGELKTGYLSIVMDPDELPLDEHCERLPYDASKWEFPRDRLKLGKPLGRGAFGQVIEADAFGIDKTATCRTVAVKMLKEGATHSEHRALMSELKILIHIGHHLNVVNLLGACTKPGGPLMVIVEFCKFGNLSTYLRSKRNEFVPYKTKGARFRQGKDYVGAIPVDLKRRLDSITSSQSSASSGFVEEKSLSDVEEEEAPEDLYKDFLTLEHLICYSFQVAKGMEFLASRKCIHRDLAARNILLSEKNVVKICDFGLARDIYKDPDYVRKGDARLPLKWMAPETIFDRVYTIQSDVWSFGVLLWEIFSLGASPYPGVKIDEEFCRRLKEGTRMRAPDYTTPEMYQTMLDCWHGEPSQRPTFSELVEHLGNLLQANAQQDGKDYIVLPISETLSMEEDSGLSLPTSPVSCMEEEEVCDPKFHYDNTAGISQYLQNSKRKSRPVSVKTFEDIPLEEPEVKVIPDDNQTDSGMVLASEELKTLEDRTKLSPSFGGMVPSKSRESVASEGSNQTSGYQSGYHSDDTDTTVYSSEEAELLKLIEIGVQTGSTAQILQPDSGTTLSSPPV

One may read the IC50 as the concentration at which inhibition is half-maximal. Consider `COc1cc2c(cc1OC)Nc1ncnc(Nc3cccc(Br)c3)c1NC2`, for which the IC50 in assay [1] came out at 1.5 µM. Turning to `COc1cc2c(cc1OC)Sc1ncnc(Sc3cccc(Cl)c3)c1NC2`, in assay [1], the IC50 was found to be 2.9 µM. Same read-out and setting: the figure for `COc1cc2c(cc1OC)Sc1nc(C)nc(Nc3ccc4c(c3)CN=N4)c1NC2` is 16.2 µM. The same measure, in the same setting: the figure for `COc1cc2c(cc1OC)Sc1ncnc(Nc3ccc(F)c(Cl)c3)c1NC2` is 8.2 µM. Take `COc1cc2c(cc1OC)Sc1ncnc(N(C)c3cccc(Br)c3)c1NC2`: the IC50 in assay [1] was > 100 µM. Still for that read-out and setting: under `COc1cc2c(cc1OC)Sc1nc(C)nc(Nc3ccc4[nH]cnc4c3)c1NC2` stands 14.5 µM; under `COc1cc2c(cc1OC)Sc1nc(C)nc(Nc3cccc(Cl)c3F)c1NC2`, > 100 µM; under `COc1cc2c(cc1OC)Sc1nc(C)nc(Nc3ccc4ccccc4c3)c1NC2`, 17 µM. For `COc1cc2c(cc1OC)Oc1ncnc(Nc3ccc(Br)cc3)c1NC2`, the IC50 in assay [1] is 8.7 µM; in assay [2] it was > 10 µM; in assay [3], > 100 µM. The corresponding values for `COc1cc2c(cc1OC)Oc1ncnc(Sc3cccc(Cl)c3)c1NC2` are 1 µM, > 10 µM and 2.4 µM. In assay [3], `COc1cc2c(cc1OC)Oc1ncnc(Nc3ccc(F)c(Cl)c3)c1NC2` showed an IC50 of 0.7 µM. Consider `COc1cc2c(cc1OC)Sc1nc(C)nc(Nc3cccc(Br)c3)c1NC2`, for which, in assay [1], the IC50 came out at 30.7 µM. On to `COc1cc2c(cc1OC)Oc1ncnc(Oc3cccc(Br)c3)c1N(C)C2`, for which the results for the IC50 in assay [1] and in assay [3] were 1.2 µM and 6.1 µM, respectively.

In the case of `COc1cc2c(cc1OC)Oc1nc(C)nc(Nc3cccc(Cl)c3F)c1NC2`, the IC50 in assay [1] was > 100 µM; in assay [2] it was > 10 µM.

On to `COc1cc2c(cc1OC)Oc1ncnc(Nc3cccc(C)c3)c1NC2`, for which the IC50 in assay [1] is 7.4 µM; in assay [2], > 10 µM; in assay [3] it was 4.4 µM. As for `C#Cc1cccc(Nc2ncnc3c2NCc2cc(OC)c(OC)cc2O3)c1`, the IC50 in assay [1] is 3.2 µM; in assay [3], 0.9 µM. Turning to `COc1cc2c(cc1OC)Oc1ncnc(Oc3cccc(Br)c3)c1NC2`, the IC50 in assay [1] was 0.7 µM; in assay [2], > 10 µM; in assay [3] it was 1.8 µM. Regarding `COc1cc2c(cc1OC)Sc1ncnc(Nc3cccc(Cl)c3F)c1NC2`, the IC50 in assay [1] was found to be 62.9 µM.

Regarding `COc1cc2c(cc1OC)Oc1ncnc(Oc3ccc(F)c(Cl)c3)c1N(C)C2`, the IC50 in assay [1] was 10.8 µM; in assay [2], > 10 µM.

Turning to `COc1cc2c(cc1OC)Oc1ncnc(Oc3cccc(Cl)c3F)c1NC2`, the IC50 in assay [1] worked out at 4.6 µM. On to `COc1cc2c(cc1OC)Oc1ncnc(Nc3ccc4ccccc4c3)c1NC2`, for which the IC50 in assay [1] was 0.5 µM; in assay [2], > 10 µM; in assay [3], 2.3 µM. In the case of `COc1cc2c(cc1OC)Oc1ncnc(Nc3ccc4c[nH]nc4c3)c1NC2`, the IC50 in assay [1] is 1.2 µM; in assay [2] it was > 10 µM. With `COc1cc2c(cc1OC)Oc1ncnc(Nc3cc(Cl)ccc3F)c1NC2`, the 50% inhibitory concentration (IC50) in assay [1] was found to be 1.1 µM; in assay [3], 3.9 µM.

In the case of `COc1cc2c(cc1OC)Sc1nc(C)nc(Nc3ccc4c[nH]nc4c3)c1NC2`, the IC50 in assay [1] came to 24.6 µM.

Take `COc1cc2c(cc1OC)Sc1ncnc(Oc3cccc(Cl)c3F)c1NC2`: the IC50 in assay [1] amounted to 19.3 µM. Same read-out and setting: under `COc1cc2c(cc1OC)Sc1ncnc(Oc3cccc(Br)c3)c1NC2` stands 21.7 µM. On to `COc1cc2c(cc1OC)Oc1ncnc(Nc3ccc(F)cc3)c1NC2`, for which the IC50 in assay [1] was 7.1 µM; in assay [2], > 10 µM; in assay [3] it was 7.6 µM.

With `COc1cc2c(cc1OC)Sc1nc(C)nc(Nc3ccc(Cl)c(C)c3)c1NC2`, the IC50 in assay [1] was > 100 µM. The same measure, in the same setting: under `COc1cc2c(cc1OC)Sc1ncnc(N(C)c3cccc(Cl)c3)c1NC2` stands 27 µM; under `COc1cc2c(cc1OC)Sc1ncnc(Nc3cccc(Br)c3)c1NC2`, 5.9 µM; under `COc1cc2c(cc1OC)Sc1ncnc(Nc3ccc4c[nH]nc4c3)c1NC2`, 14.1 µM. For `COc1cc2c(cc1OC)Sc1nc(C)nc(Nc3ccc(C)c(Br)c3)c1NC2`, the IC50 in assay [1] is > 100 µM.

As to `COc1cc2c(cc1OC)Sc1nc(C)nc(Nc3ccc(F)c(Cl)c3)c1NC2`, the IC50 in assay [1] came out at 45.9 µM. Take `COc1cc2c(cc1OC)Nc1ncnc(NCc3ccc(F)c(Cl)c3)c1NC2`: the IC50 in assay [1] came out at 0.3 µM; in assay [2], 2 µM; in assay [3], 1.6 µM. Consider `COc1cc2c(cc1OC)Sc1ncnc(Nc3ccc4ncsc4c3)c1NC2`, for which the IC50 in assay [1] is > 100 µM. `COc1cc2c(cc1OC)Nc1ncnc(N[C@H](C)c3ccccc3)c1NC2`: the results for the IC50 in assay [1], in assay [2] and in assay [3] were 0.15 µM, 2 µM and 0.5 µM, respectively. In the case of `COc1cc2c(cc1OC)Oc1ncnc(Nc3cccc(Cl)c3F)c1NC2`, the figures for the IC50 in assay [1] and in assay [3] were 0.3 µM and 4.6 µM, respectively. Consider `COc1cc2c(cc1OC)Sc1nc(C)nc(Nc3ccc4ncsc4c3)c1NC2`, for which, in assay [1], the half-inhibitory concentration (IC50) was determined as 15.2 µM.

`COc1cccc(CNc2ncnc3c2NCc2cc(OC)c(OC)cc2N3)c1`: the IC50 worked out at 0.8 µM in assay [1], 2 µM in assay [2] and 11.7 µM in assay [3].

As for `COc1cc2c(cc1OC)Oc1ncnc(Sc3cccc(Br)c3)c1NC2`, the IC50 is 1.3 µM in assay [1], > 10 µM in assay [2] and 1.2 µM in assay [3]. For the molecule `COc1cc2c(cc1OC)Nc1ncnc(NCc3ccccc3)c1NC2`, the IC50 in assay [1] was found to be 0.2 µM; in assay [2], 2 µM; in assay [3], 0.9 µM. With `COc1cc2c(cc1OC)Oc1ncnc(Nc3ccc4ncsc4c3)c1NC2`, the IC50 was 5.6 µM in assay [1] and > 10 µM in assay [2]. Consider `COc1cc2c(cc1OC)Sc1ncnc(Sc3cccc(Br)c3)c1NC2`, for which, in assay [1], the IC50 was determined as 1.6 µM.

As for `COc1cc2c(cc1OC)Oc1ncnc(Nc3cccc(Br)c3)c1NC2`, the IC50 in assay [1] is 0.3 µM; in assay [2] it was > 10 µM; in assay [3], 0.5 µM.

The record behind these values is ChEMBL document CHEMBL1149491, “Novel tricyclic azepine derivatives: Biological evaluation of pyrimido[4,5-b]-1,4-benzoxazepines, thiazepines, and diazepines as inhibitors of the epidermal growth factor receptor tyrosine kinase” (Bioorg Med Chem Lett, 2006).
